Test results as given in patent publication US10738028B2, “Spiro three-membered ring, spiro five-membered ring peptide deformylase inhibitor and use thereof in antibacteria and anti-tumor” (priority 2016, dated 2020).

What was measured:
Format in all cases: cell-based
[1] = tested on: HCT-116 colorectal cancer cell line; experiment: CCK-8 proliferation inhibition; details: Homo sapiens, HCT-116, 72 h, concentration of 30 μM; 72 hours; CCK-8; read-out: HCT116 inhibition rate/%
Summary of the method: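 HCT-116 cells, seeded at 2000 cells/well in McCoy's 5A with 10% newborn bovine serum, were cultured overnight at 37° C., 5% CO2, then exposed to compound dilutions in medium for 72 hours. Viability was read with 1:10 diluted CCK-8; controls received 1‰ DMSO.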

[2] = tested on: methicillin-resistant Staphylococcus aureus (MRSA); experiment: MIC, two-fold agar dilution (CLSI), clinical isolates
Summary of the method: (§1)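 Test samples were assayed by the CLSI-recommended two-fold agar dilution method, and the minimum inhibitory concentration against each tested strain was determined.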

[3] = tested on: methicillin-sensitive Staphylococcus epidermidis (MSSE); experiment: as above
Summary of the method: as §1

[4] = tested on: Escherichia coli (including ESBLs, non-ESBLs); experiment: as above
Summary of the method: as §1

[5] = tested on: Moraxella catarrhalis (BCA); experiment: as above
Summary of the method: as §1

[6] = tested on: methicillin-resistant Staphylococcus epidermidis (MRSE); experiment: as above
Summary of the method: as §1

[7] = tested on: Enterococcus faecalis (EFA); experiment: as above
Summary of the method: as §1

[8] = tested on: Streptococcus pneoumoniae (SPN); experiment: as above
Summary of the method: as §1

[9] = tested on: methicillin-sensitive Staphylococcus aureus (MSSA); experiment: as above
Summary of the method: as §1

[10] = tested on: Enterococcus faecium (EFM); experiment: as above
Summary of the method: as §1

CCCC[C@H](CC(=O)NO)C(=O)N1CC2(CC2)C[C@H]1C(=O)Nc1ncco1 [Example 53, (S)-5-((R)-2-(2-(hydroxyamino)-2-oxoethyl)hexanoyl)-N-(oxazol-2-yl)-5-azaspiro[2.4]heptane-6-carboxamide]
32 µg/mL: Anti-bacterial activity (MIC), strain SPN 16-2 ([8]; clinical isolate SPN 16-2) | Anti-bacterial activity (MIC), strain SPN 16-4 ([8]; clinical isolate SPN 16-4) | Anti-bacterial activity (MIC), strain EFM 15-5 ([10]; clinical isolate EFM 15-5) | Anti-bacterial activity (MIC), strain EFM 15-6 ([10]; clinical isolate EFM 15-6)
> 32 µg/mL: Anti-bacterial activity (MIC), strain MRSA 15-2 ([2]; clinical isolate MRSA 15-2) | Anti-bacterial activity (MIC), strain MRSA 15-4 ([2]; clinical isolate MRSA 15-4) | Anti-bacterial activity (MIC), strain MSSE 15-3 ([3]; clinical isolate MSSE 15-3) | Anti-bacterial activity (MIC), strain MSSE 15-4 ([3]; clinical isolate MSSE 15-4) | Anti-bacterial activity (MIC), strain MSSE 15-5 ([3]; clinical isolate MSSE 15-5) | Anti-bacterial activity (MIC), strain MSSE 15-6 ([3]; clinical isolate MSSE 15-6) | Anti-bacterial activity (MIC), strain ECO+ 15-1 ([4]; clinical isolate ECO+ 15-1) | Anti-bacterial activity (MIC), strain ECO+ 15-2 ([4]; clinical isolate ECO+ 15-2) | Anti-bacterial activity (MIC), strain ECO+ 15-3 ([4]; clinical isolate ECO+ 15-3) | Anti-bacterial activity (MIC), strain ECO+ 15-4 ([4]; clinical isolate ECO+ 15-4) | Anti-bacterial activity (MIC), strain ECO− 15-1 ([4]; clinical isolate ECO− 15-1) | Anti-bacterial activity (MIC), strain ECO− 15-2 ([4]; clinical isolate ECO− 15-2) | Anti-bacterial activity (MIC), strain ECO− 15-3 ([4]; clinical isolate ECO− 15-3) | Anti-bacterial activity (MIC), strain ECO− 15-4 ([4]; clinical isolate ECO− 15-4) | Anti-bacterial activity (MIC), strain BCA 14-1 ([5]; clinical isolate BCA 14-1) | Anti-bacterial activity (MIC), strain BCA 14-4 ([5]; clinical isolate BCA 14-4) | Anti-bacterial activity (MIC), strain BCA 14-5 ([5]; clinical isolate BCA 14-5) | Anti-bacterial activity (MIC), strain BCA 14-6 ([5]; clinical isolate BCA 14-6) | Anti-bacterial activity (MIC), strain BCA 14-7 ([5]; clinical isolate BCA 14-7) | Anti-bacterial activity (MIC), strain BCA 14-8 ([5]; clinical isolate BCA 14-8) | Anti-bacterial activity (MIC), strain BCA 14-10 ([5]; clinical isolate BCA 14-10) | Anti-bacterial activity (MIC), strain MRSE 15-1 ([6]; clinical isolate MRSE 15-1) | Anti-bacterial activity (MIC), strain MRSE 15-2 ([6]; clinical isolate MRSE 15-2) | Anti-bacterial activity (MIC), strain MRSE 15-3 ([6]; clinical isolate MRSE 15-3) | Anti-bacterial activity (MIC), strain MRSE 15-7 ([6]; clinical isolate MRSE 15-7) | Anti-bacterial activity (MIC), strain EFA 15-1 ([7]; clinical isolate EFA 15-1) | Anti-bacterial activity (MIC), strain EFA 15-2 ([7]; clinical isolate EFA 15-2) | Anti-bacterial activity (MIC), strain EFA 15-3 ([7]; clinical isolate EFA 15-3) | Anti-bacterial activity (MIC), strain EFA 15-4 ([7]; clinical isolate EFA 15-4) | Anti-bacterial activity (MIC), strain EFA 15-5 ([7]; clinical isolate EFA 15-5) | Anti-bacterial activity (MIC), strain EFA 15-6 ([7]; clinical isolate EFA 15-6) | Anti-bacterial activity (MIC), strain EFA 15-9 ([7]; clinical isolate EFA 15-9) | Anti-bacterial activity (MIC), strain MSSA 15-3 ([9]; clinical isolate MSSA 15-3) | Anti-bacterial activity (MIC), strain MSSA 15-4 ([9]; clinical isolate MSSA 15-4) | Anti-bacterial activity (MIC), strain MSSA 15-5 ([9]; clinical isolate MSSA 15-5) | Anti-bacterial activity (MIC), strain MSSA 15-6 ([9]; clinical isolate MSSA 15-6) | Anti-bacterial activity (MIC), strain EFM 15-1 ([10]; clinical isolate EFM 15-1) | Anti-bacterial activity (MIC), strain EFM 15-2 ([10]; clinical isolate EFM 15-2) | Anti-bacterial activity (MIC), strain EFM 15-3 ([10]; clinical isolate EFM 15-3) | Anti-bacterial activity (MIC), strain EFM 15-4 ([10]; clinical isolate EFM 15-4)
16 µg/mL: Anti-bacterial activity (MIC), strain MRSA 15-1 ([2]; clinical isolate MRSA 15-1) | Anti-bacterial activity (MIC), strain MRSA 15-3 ([2]; clinical isolate MRSA 15-3)
-18%: inhibition at 30 µM [1]
